Values after ≈ are worked out from the molar mass of the structure shown. Positions of bridges follow the written chain, without caps; N, C: chain ends. Residues, ends and D or L forms follow the SMILES beside them.
Key:
Candida auris_55 = assay: microbe, parasite or virus in culture
Protocol: (§1) To achieve a final cell concentration of 2 × 10^6 CFU/mL, mid-log phase cultures were diluted with a Yeast and Mold (YM) broth and then put to 96-well plates with two-fold serially diluted peptides (from 0.1 to 89.8 µM) in a 1:1 ratio.

[1] = test system: Candida albicans_ATCC10231; assay: microbe, parasite or virus in culture
Protocol: as §1

Candida auris_84 = assay: microbe, parasite or virus in culture
Protocol: as §1

[2] = test system: Cryptococcus neoformans_BNCC225501; assay: microbe, parasite or virus in culture
Protocol: as §1

[3] = test system: Cryptococcus neoformans_ATCC32045; assay: microbe, parasite or virus in culture
Protocol: as §1

C. neoformans [4] = assay: Scanning and transmission electron microscopy; assay type: cell-based, Cryptococcus neoformans; conditions: 10× the MIC; 14 µM, 2 h at 37 °C
Protocol: C. neoformans were cultured in YPDA broth to mid-log phase and diluted with normal saline (0.9% sodium chloride) to 1 × 10^9 CFU/mL. The cultures were centrifuged at 3500 rpm for 5 min, and the supernatant was discarded. After three washes with normal saline, the fungal pellets were re-suspended in normal saline. […] At 2 h post-incubation, the suspensions were centrifuged at 3500 rpm for 5 min, the supernatant was aspirated, and the pellets were re-suspended/fixed in 1 mL of 2.5% glutaraldehyde. Fixation was performed overnight at 4 °C. Next, the samples were washed in normal saline and dehydrated in a graded series of ethanol (50%, 70%, 90%, and 100%). In the end, the pellets were placed on aluminum stubs, vacuum sputter-coated in gold, and the Hitachi S-3000N (Tokyo, Japan) SEM was used to examine the membrane morphology.
For transmission electron microscopy, the cells were cultured and harvested as described above. After dehydration, cells were embedded and stained for observation under transmission electron microscopy.

[5] = test system: C. neoformans BNCC225501 biofilm; assay: Biofilm eradication assay, crystal violet; assay type: cell-based, Cryptococcus neoformans
Protocol: Evaluation of the peptide’s ability to eradicate C. neoformans BNCC225501 biofilms was performed by culturing and harvesting the fungal cells as described in the biofilm inhibition assay above. Incubation of the fungal solution (1 × 10^6 CFU/mL in YPDA media) was conducted in 96-well plates for 48 h at 37 °C. […] Excess stain was washed off with PBS, and 95% ethanol (100 µL) was added. Using a microplate reader, absorbance was determined at 600 nm for quantification of the percentage of biofilm eradication.

[6] = In vivo acute toxicity test; conditions: mouse, in vivo, ip; mice, single intraperitoneal dose, observed up to 72 h
Protocol: (§2) The peptide was administered in decreasing dosages to the different groups of mice. The concentration was lowered after three repeats if death was immediate, and 6 mice were injected if no death occurred. Following injection, mice were examined visually for any indications of toxicity, and the times at which mice died were recorded at 12/24/48/60 and 72 h. The following signs were used to assess toxicity: hunched back, ruffled fur, poor motility, and total immobility resulting in death.

C57BL/6J male mice = assay: In vivo acute toxicity test
Protocol: as §2

C. neoformans [7] = assay: Membrane potential assay, DiSC3(5) dye; assay type: cell-based, Cryptococcus neoformans; conditions: 1×, 2×, 4× and 8× the MIC, up to 40 min, ex/em 622/670 nm
Protocol: An overnight culture of C. neoformans cells was washed thrice and re-suspended in the HEPES buffer (with 5 mM of HEPES, 20 mM of glucose and 0.1 M of KCl, pH 7.5) to achieve a cell density of 10^8 CFU/mL. The fungal suspension was then incubated with 10 µM of DiSC3(5) for 30 min at 37 °C in the dark. […] PBS was added as the negative control and amphotericin B as the positive control. The negative control PBS-treated wells were used to establish baseline fluorescence. Fluorescence intensity was measured and recorded over time for up to 40 min at excitation/emission wavelengths of 622/670 nm. An increase in fluorescence indicated membrane depolarization, which implies the disruption of membrane integrity.

C. neoformans [8] = assay: Mice systemic infection model, fungal burden; assay type: in vivo, C57BL/6J female mice; conditions: immunocompromised mice, 8 × 10^6 CFU/mouse i.p., QS18 1, 2, 4 mg/kg i.p. 12 h after infection, read 12 h post-treatment, n = 4
Protocol: (§3) Mice systemic infection and the treatment model were performed to assess the dissemination of fungi to target organs as described by with little modifications. C57BL/6J female mice 20 ± 2 g were immunocompromised through the intraperitoneal injection of 150 mg/kg cyclophosphamide for four days prior to infection. C. neoformans was then cultured in YPDA broth media to mid-log phase. […] Fungal pellets were resuspended in the same buffer, and the optical density (OD) value was adjusted to 4 × 10^7 CFU/mL. A volume of 200 µL of the fungal solution was i.p. injected into immunocompromised mice (n = 4), a total of 8 × 10^6 colony-forming units (CFUs) injected per mouse. Twelve hours post-intraperitoneal inoculation of the fungi, treatment was administered. […] Twelve hours post-treatment, the mice were sacrificed, and blood was collected through retro-orbital bleeding. Organs (lung, liver, kidney, and spleen) were also harvested and divided into two parts. One portion was weighed and placed into a grinding tube with 1 mL of normal saline and then homogenized in a tissue grinder to assess the fungal burden, while fixation of the other portion was performed for the histopathology examination. Following a 5-fold serial dilution in normal saline, 100 µL of the homogenates were seeded on YPDA plates and incubated at 37 °C for 48 h before counting colonies.

C. neoformans BNCC225501 = assay: Time-killing kinetics assay; assay type: cell-based, Cryptococcus neoformans
Protocol: C. neoformans fungi grown to mid-log phase was adjusted with normal saline to 1 × 10^5 CFU/mL. […] A volume of 10 µL of the sample was taken at each time point and diluted with sterile normal saline to 100-fold. A total of 100 µL of the dilution was seeded on YPDA media agar plates in three replicates for each concentration per time point. Plates were incubated for 18–24 h at 37 °C, and the number of viable colonies was determined to assess the rate of fungi growth.

[9] = test system: TNF-α, IL-6, IL-1β, MCP-1; assay: Plasma cytokine levels of infected mice, ELISA; assay type: in vivo, C57BL/6J female mice; conditions: QS18 1, 2, 4 mg/kg i.p., n = 4
Protocol: as §3, with “One portion was weighed and placed into a grinding tube with 1 mL of normal saline and then homogenized in a tissue grinder to assess the fungal burden, while fixation of the other portion was performed for the histopathology examination. Following a 5-fold serial dilution in normal saline, 100 µL of the homogenates were seeded on YPDA plates and incubated at 37 °C for 48 h before counting colonies.” left out
Blood collected through retro-orbital bleeding was centrifuged for 25 min at 5000 rpm to isolate plasma. Following the manufacturer’s guidelines, standard enzyme-linked immunosorbent assay (ELISA) kits were used to quantify the cytokine levels of tumor necrosis factor-α (TNF-α), interleukin-6 (IL-6), interleukin--1β (IL-1β), and monocyte chemoattractant protein-1 (MCP-1) in the plasma.

chymotrypsin = conditions: peptide 1 mg/mL, peptide:enzyme 250:1, 5 mM CaCl2, 50 mM Tris-HCl pH 7.4, 37 °C, time points 0 to 12 h, SDS-PAGE bands
Protocol: (§4) The mixture was heated for 10 min at 95 °C to halt enzymatic reaction. A solution of 20 µL of the SDS-PAGE loading buffer (5×) was added to 80 µL of the sample, mixed by vortexing and heated for 5 min at 95 °C. SDS-PAGE analysis was performed using Omni-PAGE™Precast HEPES-Tris Gels. LL37 and colistin antibiotics were used as controls.

trypsin = conditions: peptide 1 mg/mL, peptide:enzyme 250:1, 5 mM CaCl2, 50 mM Tris-HCl pH 7.4, 37 °C, time points 0 to 12 h, SDS-PAGE bands
Protocol: as §4

C. neoformans [10] = assay: Histopathological examination of infected mice; assay type: in vivo, C57BL/6J female mice; conditions: 4 mg/kg i.p., lung, liver, spleen and kidney, 12 h post-treatment
Protocol: as §3, with “colonies. […]” for “colonies.”

C. neoformans [11] = conditions: then 4 × MIC on C. neoformans 1 × 10^6 CFU/mL, absorbance 595 nm
Protocol: Incubation of the mixture was performed for 3 h at 37 °C. A volume of 100 µL of fresh yeast extract peptone dextrose agar (YPDA) broth media was added to the mixture followed by a further 16 h of incubation. Included as negative controls were samples containing heat-inactivated protease with no peptide but media only. The inhibition of fungal growth was detected by measuring absorbance at 595 nm with a Synergy H1 Micro plate Reader (Bio-Tek, Winooski, VT, USA). The assays were performed in three replicates.

[12] = test system: C. neoformans BNCC225501 biofilms; assay: Two-photon laser scanning microscopy of biofilms, FDA/PI; assay type: cell-based, Cryptococcus neoformans; conditions: 0.5× to 8 × the MIC, 24 h at 37 °C
Protocol: Fluorescein diacetate (FDA) and Propidium iodide (PI) dyes were utilized to stain live and dead cells, respectively. The fungi were cultured in YPDA broth media at 37 °C to the mid-logarithmic phase. Fungal cells were centrifuged at 3500 rpm for 5 min and then washed thrice with normal saline (0.9% sodium chloride). The fungal suspension was diluted to 1 × 10^9 CFU/mL in YPDA broth media, and, then, 500 µL was added to wells in a 24-well plate. Incubation was performed for 24 h at 37 °C; then, wells were washed thrice with PBS. […] Normal saline was added to the negative control group. […] After incubation, the non-adherent cells were washed with PBS, 250 µL (10 µg/mL) of FDA dye (Solarbio, Beijing, China) was added to each well and left in the dark for 20 min, and, then, 250 µL (5 µg/mL) of PI dye (Solarbio, Beijing, China) was added and co-stained in the dark for 10 min. Microscopy observation was performed utilizing the TPLSM (A1MP+, Nikon, Tokyo, Japan) at 555 nm and 488 nm excitations for PI and FDA, respectively.

[13] = broth microdilution, YM broth, 2 × 10^6 CFU/mL, 24 h at 37 °C, lowest concentration that fully inhibited growth

Structure (SMILES): C[C@@H]1[C@H](O)[C@@H](C)/C=C/C=C/C=C/C=C/C=C/C=C/C=C/[C@H](O[C@@H]2O[C@H](C)[C@@H](O)[C@H](N)[C@@H]2O)C[C@@H]2O[C@](O)(C[C@@H](O)C[C@@H](O)[C@H](O)CC[C@@H](O)C[C@@H](O)CC(=O)O[C@H]1C)C[C@H](O)[C@H]2C(=O)O [Amphotericin B, amphotericin B, reference compound]
- MIC (Candida auris_55; Candida, 24 h): 1.7 µM (≈ 1.57 µg/mL)
- MIC ([1]; Candida, 24 h): ≤ 0.4 µM
- MIC (Candida auris_84; Candida, 24 h): 0.8 µM (≈ 0.739 µg/mL)
- MIC ([2]; Cryptococcus, 24 h): 1.7 µM (≈ 1.57 µg/mL)
- MIC ([3]; Cryptococcus, 24 h): 3.4 µM (≈ 3.14 µg/mL)

Structure (SMILES): CC(C)[C@@H]1NC(=O)[C@H](CCCCN)NC(=O)[C@H](Cc2ccccc2)NC(=O)[C@@H](NC(=O)[C@@H](N)CCC(N)=O)CSSC[C@@H](C(=O)N[C@@H](CO)C(=O)N[C@@H](CCCNC(=N)N)C(=O)N[C@@H](CO)C(N)=O)NC(=O)[C@H](CCCCN)NC(=O)[C@H]([C@@H](C)O)NC(=O)[C@H](Cc2ccccc2)NC(=O)[C@@H]2CSSC[C@H](NC1=O)C(=O)N[C@@H](Cc1ccccc1)C(=O)N[C@@H](CCCNC(=N)N)C(=O)N[C@@H](CCCCN)C(=O)N[C@@H](CCCNC(=N)N)C(=O)N2 [QS18] (H-QCFKVCFRKRCFTKCSRS-NH2; disulfide 2-15, 6-11; N-terminus and C-terminus assumed)
- cell morphology by SEM and TEM (C. neoformans [4]): leaked cytoplasmic contents, as well as irregular cell morphology with shrunken cell surfaces
- eradication of preformed biofilms ([5]; 1 × MIC, 48 h preformed biofilm, crystal violet OD600): up to 65%
- eradication of biofilms ([5]; sub-MIC levels): over 50%
- LD50 at 72 h [6]: 30 mg/kg
- LD50 i.p. compared to intravenous administration (C57BL/6J male mice): two-fold
- acute toxicity observation (C57BL/6J male mice; intravenous, 10 mg/kg, over 72 hours): no signs of toxicity or death
- intravenous toxicity (C57BL/6J male mice; intravenous, 20 mg/kg and 40 mg/kg): lethal effect
- DiSC3(5) fluorescence (membrane depolarization) (C. neoformans [7]): significant increase in fluorescence
- fungal burden (CFU) in lung, liver, kidney, spleen and blood (C. neoformans [8]): significant suppression of fungi dissemination to target organs
- time to no fungal growth (C. neoformans BNCC225501; 5× the MIC, 1 × 10^5 CFU/mL, 37 °C, colony count): 120 min
- time to kill fungi (C. neoformans BNCC225501; C. neoformans BNCC 225501, as worded in the discussion): within an hour
- plasma IL-1β, IL-6, TNF-α and MCP-1 [9]: dose-dependent reductions in these inflammatory markers
- proteolytic stability with chymotrypsin (chymotrypsin): remained stable in chymotrypsin even after 12 h of incubation
- proteolytic stability with trypsin (trypsin): complete degradation after 1 h
- tissue morphology, H&E staining (C. neoformans [10]): near-normal tissue morphology
- MIC times lower than that of fluconazole ([2]; oxidized QS18 compared with fluconazole): approximately fourteen
- antifungal activity after chymotrypsin exposure (C. neoformans [11]; 2 h with chymotrypsin (250:1) at 37 °C): maintained its activity
- antifungal efficacy after trypsin exposure (C. neoformans [11]; 2 h with trypsin (250:1) at 37 °C): reduced antifungal efficacy
- viability of biofilm cells, PI/FDA fluorescence [12]: decreased dose-dependently

Structure (SMILES): CC(C)[C@H](NC(=O)[C@H](CCCCN)NC(=O)[C@H](Cc1ccccc1)NC(=O)[C@H](CS)NC(=O)[C@@H](N)CCC(N)=O)C(=O)N[C@@H](CS)C(=O)N[C@@H](Cc1ccccc1)C(=O)N[C@@H](CCCNC(=N)N)C(=O)N[C@@H](CCCCN)C(=O)N[C@@H](CCCNC(=N)N)C(=O)N[C@@H](CS)C(=O)N[C@@H](Cc1ccccc1)C(=O)N[C@H](C(=O)N[C@@H](CCCCN)C(=O)N[C@@H](CS)C(=O)N[C@@H](CO)C(=O)N[C@@H](CCCNC(=N)N)C(=O)N[C@@H](CO)C(=O)O)[C@@H](C)O [QS18red] (H-QCFKVCFRKRCFTKCSRS-OH)
- proteolytic stability with chymotrypsin (chymotrypsin): faint initial band that disappeared after 15 min
- proteolytic stability with trypsin (trypsin): no bands observed even at t = 0 min
- MIC (Candida auris_55; [13]): > 89.8 µM
- MIC [1, 13]: > 89.8 µM
- MIC (Candida auris_84; [13]): 44.9 µM (≈ 100 µg/mL)
- MIC [2, 13]: 89.8 µM (≈ 200 µg/mL)
- MIC [3, 13]: ≥ 89.8 µM
